Biological target: mTOR/GbL/Raptor (mTORC1) (Homo sapiens, UniProt P42345)
Test: mTOR/GbL/Raptor (mTORC1) ELISA assay
Type: biochemical
Details: phosphorylation of 4E-BP1; 0.2 nM mTORC1, 10 μM ATP; read-out: IC50 in this assay (mTORC1 ELISA)
How it was run: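 ELISA read-out: phospho-4E-BP1 captured on Ni-chelate plates and detected with anti-phospho antibody plus HRP-anti-IgG luminescence. The kinase step ran 120 min at ambient temperature with 0.2 nM human mTORC1, 10 µM ATP, 50 nM His-4E-BP1, 10 mM MnCl2, pH 7.2 HEPES.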

| Compound | IC50 |
| --- | --- |
| CC1(C)CCc2ncnc(N3CCOc4ccc(-c5cnc(N)c(S(=O)(=O)NCCCO)c5)cc4C3)c2C1 [Example 375, 2-amino-5-[4-(6,6-dimethyl-5,6,7,8-tetrahydroquinazolin-4-yl)-2,3,4,5-tetrahydro-1,4-benzoxazepin-7-yl]-N-(3-hydroxypropyl)pyridine-3-sulfonamide] | ≤ 10 nM |
| Cc1ncc(-c2ccc3c(c2)CN(c2ncnc4c2CC(C)(C)CC4)CCO3)cc1NS(C)(=O)=O [Example 633, N-{5-[4-(6,6-dimethyl-5,6,7,8-tetrahydroquinazolin-4-yl)-2,3,4,5-tetrahydro-1,4-benzoxazepin-7-yl]-2-methylpyridin-3-yl}methanesulfonamide] | 50 to 250 nM |
| Cc1nc(Nc2ccccc2)c(C)c(N2CCOc3ccc(-c4cnc5nc[nH]c5c4)cc3C2)n1 [Example 530] | 10 to 50 nM |
| CN(C)Cc1nc2c(c(N3CCOc4ccc(-c5cnc6sc(N)nc6c5)cc4C3)n1)CC(C)(C)CC2 [Example 526, 6-(4-{2-[(dimethylamino)methyl]-6,6-dimethyl-5,6,7,8-tetrahydroquinazolin-4-yl}-2,3,4,5-tetrahydro-1,4-benzoxazepin-7-yl)[1,3]thiazolo[5,4-b]pyridin-2-amine] | 10 to 50 nM |
| Cc1nc(CN(C)C)nc(N2CCOc3ccc(-c4cnc5sc(N)nc5c4)cc3C2)c1CC(C)C [Example 665, 6-(4-{2-[(dimethylamino)methyl]-6-methyl-5-(2-methylpropyl)pyrimidin-4-yl}-2,3,4,5-tetrahydro-1,4-benzoxazepin-7-yl)[1,3]thiazolo[5,4-b]pyridin-2-amine] | 10 to 50 nM |
| Cc1nc2ccc(-c3ccc4c(c3)CN(c3ncnc(C)c3Cc3ccc(F)cc3)CCO4)cc2[nH]1 [Example 79, 4-{5-[(4-fluorophenyl)methyl]-6-methylpyrimidin-4-yl}-7-(2-methyl-1H-benzimidazol-6-yl)-2,3,4,5-tetrahydro-1,4-benzoxazepine] | ≤ 10 nM |
| CC1(C)C=Cc2ncnc(N3CCOc4ccc(-c5ccc(-c6ncc[nH]6)cc5)cc4C3)c2C1 [Example 479, 4-(6,6-dimethyl-5,6-dihydroquinazolin-4-yl)-7-[4-(1H-imidazo-2-yl)phenyl]-2,3,4,5-tetrahydro-1,4-benzoxazepine] | ≤ 10 nM |
| COc1c(Cl)cc2c(N3CCOc4ccc(-c5ccc6nc(C)[nH]c6c5)cc4C3)ncnc2c1OC [Example 42, 4-[6-chloro-7,8-bis(methyloxy)quinazolin-4-yl]-7-(2-methyl-1H-benzimidazol-6-yl)-2,3,4,5-tetrahydro-1,4-benzoxazepine] | 250 to 1000 nM |
| CCNc1nc2ccc(-c3ccc4c(c3)CN(c3cc(Nc5cccc(OC)c5)ncn3)CCO4)cc2[nH]1 [Example 284, N-ethyl-6-[4-(6-{[3-(methyloxy)phenyl]amino}pyrimidin-4-yl)-2,3,4,5-tetrahydro-1,4-benzoxazepin-7-yl]-1H-benzimidazol-2-amine] | 250 to 1000 nM |
| Cc1nc2cc(-c3ccc4c(c3)CN(c3nc(CN(C)C)ncc3C(C)C)CCO4)ccc2[nH]1 [Example 612, N,N-dimethyl-1-{4-[7-(2-methyl-1H-benzimidazol-5-yl)-2,3-dihydro-1,4-benzoxazepin-4(5H)-yl]-5-(1-methylethyl)pyrimidin-2-yl}methanamine] | 50 to 250 nM |
| CC1(C)CCc2ncnc(N3CCOc4ccc(-c5cnc(N)c(S(=O)(=O)N6CCOCC6)c5)cc4C3)c2C1 [Example 513, 5-[4-(6,6-dimethyl-5,6,7,8-tetrahydroquinazolin-4-yl)-2,3,4,5-tetrahydro-1,4-benzoxazepin-7-yl]-3-(morpholin-4-ylsulfonyl)pyridin-2-amine] | 50 to 250 nM |
| Cc1nc2ncc(-c3ccc4c(c3)CN(c3nc(CNC(C)(C)C)nc5c3CC(C)(C)CC5)CCO4)cc2[nH]1 [Example 595, N-({6,6-dimethyl-4-[7-(2-methyl-1H-imidazo[4,5-b]pyridin-6-yl)-2,3-dihydro-1,4-benzoxazepin-4(5H)-yl]-5,6,7,8-tetrahydroquinazolin-2-yl}methyl)-2-methylpropan-2-amine] | 10 to 50 nM |
